The numbers were not newly measured in patent US20150127309A1, “Method To Translate Biodynamic Spectrograms Into High-Content Information” (Purdue Research Foundation, priority 2013, published 2015), which cites them from elsewhere.

The test system of one data set is three Raf isoforms. The settings on record: in serum; refs [75-77].
The conditions of data set [1]: ref [78].

For `CCCS(=O)(=O)Nc1ccc(F)c(C(=O)c2c[nH]c3ncc(-c4ccc(Cl)cc4)cc23)c1F` [PLX4032], in the data set with three Raf isoforms, the “activity against Raf isoforms” value is recorded as “active against three Raf isoforms at nanomolar concentrations”. Also, the toxicity result in data set [1] is “minimal toxicity”. Further, in data set [1] (serum), the tolerated serum levels entry is recorded as “up to 50 μM”.
